Reference: patent publication US20240067686A1, “NOVEL PEPTIDE CAPABLE OF INHIBITING TGF-ß SIGNALING AND USE THEREOF” (Korea Institute of Science and Technology, priority 2020, published 2024)

Legend:
[1] = system: TGF-β cytokine released from Aspc1 cells; experiment: ELISA of TGF-β cytokine concentration in Aspc1 culture media; format: cell-based; details: 50 ng/ml TGF-β plus peptide, 48 hours, FIG. 6
Procedure: Specifically, the pancreatic cancer cell line Aspc1 was seeded in a 96-well plate at a density of 2×10^4 cells/well, cultured for one day, and then treated with 50 ng/ml of TGF-β or TGF-β plus inhibitor (candidate peptide and control peptide) for 48 hours, and then the concentrations of the TGF-β cytokine in the cancer cell culture media were analyzed by ELISA technique using a TGF-β detection ELISA kit. The concentration of the extracellularly released TGF-β cytokine was determined by measuring the absorbance with a multiplate reader, and the results were graphed.

pSmad2/3 in Aspc1 cells = experiment: Western blotting of pSmad2/3 expression level in Aspc1 cells; format: cell-based; details: TGF-β plus candidate peptide, 24 hours, FIG. 7
Procedure: Specifically, in order to analyze the time-dependent expression of phospho-Smad2/3 in cells by Western blotting assay, each of pancreatic cancer cell lines Bxpc3 and Aspc1 was treated with TGF-β cytokine at 50 ng/ml, and then cells obtained at different times were lysed by adding a cell lysis buffer containing a protease inhibitor (Thermo Scientific), and then sampled, thus preparing samples for Western blotting. Each of the samples was electrophoresed on SDS-PAGE gel, transferred to nitrocellulose membranes, and then blocked using skim milk powder. […] Then, the membranes were visualized by chemiluminescence using a Western ECL substrate (Thermo Scientific), and the obtained luminescence images were analyzed with Chemidoc (BioRad).
Specifically, each of the pancreatic cancer cell lines Aspc1, Bxpc3 and Panc1 was seeded in a 6-well plate at a density of 1×10^6 cells/well and cultured for one day. The next day, the cells were treated with TGF-β or TGF-β plus candidate peptide for 24 hours (control: 15% ACN—candidate peptide solvent, DMSO—P144 peptide solvent, P144), and the expression levels of pSmad2/3 and total Smad2/3 were analyzed by the Western blotting method described in Example 2.

Sequence	inhibition of extracellular release of TGF-β cytokine [1]	inhibition of expression level of pSmad2/3 (pSmad2/3 in Aspc1 cells)
TIVYYVVIKPKVEQ (P14) [candidate peptide derived from TGF-β, target TGFβRII]	directly inhibited the extracellular release of TGF-β cytokine	
FCLGPCPYIWSLDTVLSL (P6) [candidate peptide derived from TGF-β, target TGFβRI/II]	directly inhibited the extracellular release of TGF-β cytokine	best ability to inhibit the expression level of pSmad2/3
FCLGPCPYIWCLDTF (P5) [candidate peptide derived from TGF-β, target TGFβRI/II]	directly inhibited the extracellular release of TGF-β cytokine	
FCLGPCPYIWCLDTVLSL (P7) [candidate peptide derived from TGF-β, target TGFβRI/II]	directly inhibited the extracellular release of TGF-β cytokine	
